According to PMC8512764, “New 4-Aminoproline-Based Small Molecule Cyclopeptidomimetics as Potential Modulators of α4β1 Integrin” (Molecules, 2021):
Like-named read-outs stand apart in the source and are kept apart here. *1 amine or outer side, *2 acyl side, *3 side chain or, on linkers, in order; H or OH if unused. Where a SMILES comes first, the peptide text is derived from it. Bridges are numbered along the chain shown (N, C = ends). [ ]: non-standard residue; d: D form. The star is where a group is joined. ξ: configuration not given here. ξPro(4ξ-NH2) = O=C(C1CC(N[*:3])CN1[*:1])[*:2]; X1 = O=C(Cc1ccc(N[*:1])cc1)[*:2]; NH(2-Me-phenyl) = Cc1ccccc1N*; CO = O=C([*:1])[*:2]

Experiments:
[1] = amide bond, HATU/HOAt/collidine, DCM/DMF 15:1, 25.0 °C
[2] = head-to-tail lactamisation (amide bond) of side-chain-protected linear peptides; HATU (3 equiv)/HOAt (3 equiv)/2,4,6-collidine (3 equiv); linear peptide + collidine added dropwise to HATU/HOAt, 5 h, argon; settings: the molecule shown is the open-chain precursor, DCM/DMF 15:1, 25.0 °C
α4β1 integrin = target: T1, α4β1 integrin (Homo sapiens, UniProt P05556+P13612); assay: Jurkat cell adhesion assay on VCAM-1-coated wells; assay type: cell-based; settings: Jurkat cell adhesion to VCAM-1 (2 μg/mL); means ± SD, n = 3; tested 0.1 nM to 100 μM; read-out: EC50/IC50 (IC50 for compounds reducing cell adhesion)
T1 construct: Jurkat cells endogenously express α4β1 integrin; host or cells: Jurkat E6.1 cells
T1 sequence (P13612 34-1032): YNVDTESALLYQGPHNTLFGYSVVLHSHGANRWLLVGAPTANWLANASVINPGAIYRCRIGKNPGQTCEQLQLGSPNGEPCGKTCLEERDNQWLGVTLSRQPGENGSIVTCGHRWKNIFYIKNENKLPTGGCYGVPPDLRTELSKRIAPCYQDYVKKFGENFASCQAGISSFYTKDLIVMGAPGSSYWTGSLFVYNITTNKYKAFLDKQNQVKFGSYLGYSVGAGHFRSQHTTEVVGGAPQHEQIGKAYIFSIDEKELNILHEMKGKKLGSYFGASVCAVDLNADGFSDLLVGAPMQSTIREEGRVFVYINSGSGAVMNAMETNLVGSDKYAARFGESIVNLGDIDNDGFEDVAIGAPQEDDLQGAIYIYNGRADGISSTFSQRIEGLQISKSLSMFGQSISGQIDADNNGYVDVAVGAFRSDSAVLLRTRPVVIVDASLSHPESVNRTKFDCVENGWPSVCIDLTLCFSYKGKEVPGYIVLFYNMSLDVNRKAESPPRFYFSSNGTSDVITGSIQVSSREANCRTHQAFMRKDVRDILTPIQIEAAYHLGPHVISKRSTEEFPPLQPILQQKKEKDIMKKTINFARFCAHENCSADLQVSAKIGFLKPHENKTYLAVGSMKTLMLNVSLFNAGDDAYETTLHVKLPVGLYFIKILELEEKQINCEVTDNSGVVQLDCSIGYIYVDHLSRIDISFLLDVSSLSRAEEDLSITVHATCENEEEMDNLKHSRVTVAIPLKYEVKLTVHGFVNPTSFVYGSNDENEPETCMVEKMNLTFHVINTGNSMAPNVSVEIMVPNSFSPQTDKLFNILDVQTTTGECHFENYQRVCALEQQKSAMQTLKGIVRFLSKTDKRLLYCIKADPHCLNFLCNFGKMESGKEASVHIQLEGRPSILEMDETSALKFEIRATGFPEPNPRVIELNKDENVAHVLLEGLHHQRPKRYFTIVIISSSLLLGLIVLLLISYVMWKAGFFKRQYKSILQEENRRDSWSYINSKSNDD
T1 sequence (P05556 21-798): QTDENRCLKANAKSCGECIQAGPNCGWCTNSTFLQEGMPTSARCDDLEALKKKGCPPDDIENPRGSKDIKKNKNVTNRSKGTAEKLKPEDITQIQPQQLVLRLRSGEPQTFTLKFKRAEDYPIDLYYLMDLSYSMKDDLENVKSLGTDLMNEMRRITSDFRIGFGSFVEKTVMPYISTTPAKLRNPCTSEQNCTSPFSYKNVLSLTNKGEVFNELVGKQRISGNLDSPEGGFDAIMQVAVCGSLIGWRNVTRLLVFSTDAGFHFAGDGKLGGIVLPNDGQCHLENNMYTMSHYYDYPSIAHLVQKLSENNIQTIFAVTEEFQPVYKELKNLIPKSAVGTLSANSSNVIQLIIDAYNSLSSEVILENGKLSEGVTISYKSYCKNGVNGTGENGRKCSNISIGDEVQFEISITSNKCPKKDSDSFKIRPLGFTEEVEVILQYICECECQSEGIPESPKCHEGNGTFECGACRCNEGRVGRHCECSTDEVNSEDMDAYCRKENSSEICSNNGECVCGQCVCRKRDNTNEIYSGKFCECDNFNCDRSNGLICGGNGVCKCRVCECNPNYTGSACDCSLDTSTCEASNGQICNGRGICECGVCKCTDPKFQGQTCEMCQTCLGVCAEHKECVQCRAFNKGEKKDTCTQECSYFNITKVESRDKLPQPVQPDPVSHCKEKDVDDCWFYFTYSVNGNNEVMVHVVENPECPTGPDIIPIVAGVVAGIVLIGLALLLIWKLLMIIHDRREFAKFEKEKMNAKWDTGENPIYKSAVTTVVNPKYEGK
Method: To investigate the ability of the newly synthesized cyclopeptidomimetics 12–18 to recognize and bind α4β1 integrin, cell adhesion assays were performed on VCAM-1. The compounds were evaluated for their ability to interfere with α4β1 integrin-mediated cell adhesion by using Jurkat cells, which are known to constitutively express this integrin [46, 48, 49, 50, 51].
Jurkat E6.1 cells were purchased from American Type Culture Collection (ATCC, Rockville, MD, USA) and were routinely cultured in RPMI-1640 (LifeTechnologies, Milan, Italy) supplemented with 10% FBS (fetal bovine serum, Life Technologies) and 2 mM glutamine. Cells were kept at 37 °C under 5% CO2 humidified atmosphere. Jurkat cells are a widely used cell model to study potential agonist or antagonist ligands able to modulate integrin-mediated cell adhesion. Jurkat cells endogenously express α4β1 integrin [13].
The assays were performed as previously described. In brief, black 96 well plates were coated with VCAM-1 (2 μg/mL) overnight at 4 °C; then, non-specific hydrophobic binding sites were blocked with 1% BSA (bovine serum albumin, Sigma-Aldrich) in HBSS (Life Technologies) for 30 min at 37 °C. Jurkat cells were labelled with CellTracker green CMFDA (12.5 μM, Life Technolgies) and pre-incubated with various concentration (10^−4–10^−10 M) of each new cyclopeptidomimetic or with the vehicle (DMSO) for 30 min at 37 °C. Afterwards, Jurkat cells were plated on VCAM-1-coated wells and incubated for 30 min at 37 °C. Then, wells were washed three times with 1% BSA in HBSS and Jurkat cells were lysed with 0.5% Triton X-100 in PBS for 30 min at 4 °C. Green fluorescence (Ex485 nm/Em 535 nm) was measured in an EnSpire Multimode Plate Reader (PerkinElmer, Waltham, MA, USA). Experiments were performed in quadruplicate and repeated at least three times. The number of adherent cells was determined by comparison with a standard curve made with a known concentration of labelled Jurkat cells. Data analysis and IC50/EC50 values were calculated using GraphPad Prism 6.0 (GraphPad Software, San Diego, CA, USA).
The number of adherent cells was determined as described above.

Cc1ccccc1NC(=O)Nc1ccc(CC(=O)N2C[C@@H]3C[C@H]2C(=O)N[C@@H](CC(C)C)C(=O)N[C@@H](CC(=O)OC(C)(C)C)C(=O)N[C@@H](C(C)C)C(=O)NCC(=O)N3)cc1 [H-Val-Gly-Amp(MPUPA)-Leu-Asp(tBu)-OH]
ring closure, isolated yield ([1]; from H-Val-Gly-Amp(MPUPA)-Leu-Asp(tBu)-OH, 17-membered ring, 0.47 mM): 88%

Cc1ccccc1NC(=O)Nc1ccc(CC(=O)N2C[C@@H](NC(=O)CNC(=O)[C@@H](N)C(C)C)C[C@H]2C(=O)N[C@@H](CC(C)C)C(=O)N[C@@H](CC(=O)OC(C)(C)C)C(=O)O)cc1 [H-Val-Gly-Amp(MPUPA)-Leu-Asp(tBu)-OH]
ring closure, isolated yield ([2]; 17-membered ring): 88%

Cc1ccccc1NC(=O)Nc1ccc(CC(=O)N2C[C@@H]3C[C@H]2C(=O)N[C@@H](C(C)C)C(=O)N[C@@H](CC(=O)OC(C)(C)C)C(=O)N[C@@H](CC(C)C)C(=O)N3)cc1 [H-Leu-Amp(MPUPA)-Val-Asp(tBu)-OH]
ring closure, isolated yield ([1]; from H-Leu-Amp(MPUPA)-Val-Asp(tBu)-OH, 14-membered ring, 0.78 mM): 73%

Cc1ccccc1NC(=O)Nc1ccc(CC(=O)N2C[C@@H]3C[C@H]2C(=O)N[C@@H](CC(C)C)C(=O)N[C@@H](CCC(=O)OC(C)(C)C)C(=O)N[C@@H](C(C)C)C(=O)NCC(=O)N3)cc1 [H-Val-Gly-Amp(MPUPA)-Leu-Glu(tBu)-OH]
ring closure, isolated yield ([1]; from H-Val-Gly-Amp(MPUPA)-Leu-Glu(tBu)-OH, 17-membered ring, 0.48 mM): 78%

Cc1ccccc1NC(=O)Nc1ccc(CC(=O)N2CC3CC2C(=O)NC(C(C)C)C(=O)NC(CCC(=O)O)C(=O)NC(CC(C)C)C(=O)N3)cc1 (stereo not drawn) [Compound 17, c[(MPUPA)Amp-Val-Glu-Leu]] ({NH(2-Me-phenyl)-CO}-[X1][ξPro(4ξ-NH2)]VEL; lactam 2-C; configuration not given here)
IC50 (α4β1 integrin): > 100 µM

Cc1ccccc1NC(=O)Nc1ccc(CC(=O)N2C[C@@H](NC(=O)[C@@H](N)C(C)C)C[C@H]2C(=O)N[C@@H](CC(C)C)C(=O)N[C@@H](CCC(=O)OC(C)(C)C)C(=O)O)cc1 [H-Val-Amp(MPUPA)-Leu-Glu(tBu)-OH]
ring closure, isolated yield ([2]; 14-membered ring): 65%

Cc1ccccc1NC(=O)Nc1ccc(CC(=O)N2CC3CC2C(=O)NC(CCCNC(=N)N)C(=O)NCC(=O)NC(CC(=O)O)C(=O)N3)cc1 (stereo not drawn) [Compound 18, c[(MPUPA)Amp-Arg-Gly-Asp]] ({NH(2-Me-phenyl)-CO}-[X1][ξPro(4ξ-NH2)]RGD; lactam 2-C; configuration not given here)
IC50 (α4β1 integrin): > 100 µM

Cc1ccccc1NC(=O)Nc1ccc(CC(=O)N2CC3CC2C(=O)NC(CC(C)C)C(=O)NC(CC(=O)O)C(=O)NC(C(C)C)C(=O)N3)cc1 (stereo not drawn) [Compound 14, c[(MPUPA)Amp-Leu-Asp-Val]] ({NH(2-Me-phenyl)-CO}-[X1][ξPro(4ξ-NH2)]LDV; lactam 2-C; configuration not given here)
IC50 (α4β1 integrin): > 100 µM

Cc1ccccc1NC(=O)Nc1ccc(CC(=O)N2C[C@@H](NC(=O)[C@@H](N)CC(=O)OC(C)(C)C)C[C@H]2C(=O)N[C@@H](CCCNC(=N)NS(=O)(=O)c2c(C)c(C)c3c(c2C)CCC(C)(C)O3)C(=O)NCC(=O)O)cc1 [H-Asp(tBu)-Amp(MPUPA)-Arg(Pmc)-Gly-OH]
ring closure, isolated yield ([2]; 14-membered ring): 43%

Cc1ccccc1NC(=O)Nc1ccc(CC(=O)N2C[C@@H]3C[C@H]2C(=O)N[C@@H](CCCNC(=N)NS(=O)(=O)c2c(C)c(C)c4c(c2C)CCC(C)(C)O4)C(=O)NCC(=O)N[C@@H](CC(=O)OC(C)(C)C)C(=O)N3)cc1 [H-Asp(tBu)-Amp(MPUPA)-Arg(Pmc)-Gly-OH]
ring closure, isolated yield ([1]; from H-Asp(tBu)-Amp(MPUPA)-Arg(Pmc)-Gly-OH, 14-membered ring, 0.52 mM): 43%

Cc1ccccc1NC(=O)Nc1ccc(CC(=O)N2C[C@@H]3C[C@H]2C(=O)N[C@@H](CC(C)C)C(=O)N[C@@H](CC(=O)OC(C)(C)C)C(=O)N[C@@H](C(C)C)C(=O)N3)cc1 [H-Val-Amp(MPUPA)-Leu-Asp(tBu)-OH]
ring closure, isolated yield ([1]; from H-Val-Amp(MPUPA)-Leu-Asp(tBu)-OH, 14-membered ring, 0.53 mM): 69%

Cc1ccccc1NC(=O)Nc1ccc(CC(=O)N2CC3CC2C(=O)NC(CC(C)C)C(=O)NC(CCC(=O)O)C(=O)NC(C(C)C)C(=O)NCC(=O)N3)cc1 (stereo not drawn) [Compound 13, c[(MPUPA)Amp-Leu-Glu-Val-Gly]] ({NH(2-Me-phenyl)-CO}-[X1][ξPro(4ξ-NH2)]LEVG; lactam 2-C; configuration not given here)
IC50 (α4β1 integrin): > 100 µM

Cc1ccccc1NC(=O)Nc1ccc(CC(=O)N2C[C@@H]3C[C@H]2C(=O)N[C@@H](C(C)C)C(=O)N[C@@H](CCC(=O)OC(C)(C)C)C(=O)N[C@@H](CC(C)C)C(=O)N3)cc1 [H-Leu-Amp(MPUPA)-Val-Glu(tBu)-OH]
ring closure, isolated yield ([1]; from H-Leu-Amp(MPUPA)-Val-Glu(tBu)-OH, 14-membered ring, 0.74 mM): 73%

Cc1ccccc1NC(=O)Nc1ccc(CC(=O)N2C[C@@H](NC(=O)[C@@H](N)C(C)C)C[C@H]2C(=O)N[C@@H](CC(C)C)C(=O)N[C@@H](CC(=O)OC(C)(C)C)C(=O)O)cc1 [H-Val-Amp(MPUPA)-Leu-Asp(tBu)-OH]
ring closure, isolated yield ([2]; 14-membered ring): 69%

Cc1ccccc1NC(=O)Nc1ccc(CC(=O)N2C[C@@H](NC(=O)CNC(=O)[C@@H](N)C(C)C)C[C@H]2C(=O)N[C@@H](CC(C)C)C(=O)N[C@@H](CCC(=O)OC(C)(C)C)C(=O)O)cc1 [H-Val-Gly-Amp(MPUPA)-Leu-Glu(tBu)-OH]
ring closure, isolated yield ([2]; 17-membered ring): 78%

Cc1ccccc1NC(=O)Nc1ccc(CC(=O)N2CC3CC2C(=O)NC(CC(C)C)C(=O)NC(CC(=O)O)C(=O)NC(C(C)C)C(=O)NCC(=O)N3)cc1 (stereo not drawn) [Compound 12, c[(MPUPA)Amp-Leu-Asp-Val-Gly]] ({NH(2-Me-phenyl)-CO}-[X1][ξPro(4ξ-NH2)]LDVG; lactam 2-C; configuration not given here)
IC50 (α4β1 integrin): > 100 µM

Cc1ccccc1NC(=O)Nc1ccc(CC(=O)N2CC3CC2C(=O)NC(CC(C)C)C(=O)NC(CCC(=O)O)C(=O)NC(C(C)C)C(=O)N3)cc1 (stereo not drawn) [Compound 15, c[(MPUPA)Amp-Leu-Glu-Val]] ({NH(2-Me-phenyl)-CO}-[X1][ξPro(4ξ-NH2)]LEV; lactam 2-C; configuration not given here)
IC50 (α4β1 integrin): > 100 µM

Cc1ccccc1NC(=O)Nc1ccc(CC(=O)N2C[C@@H]3C[C@H]2C(=O)N[C@@H](CC(C)C)C(=O)N[C@@H](CCC(=O)OC(C)(C)C)C(=O)N[C@@H](C(C)C)C(=O)N3)cc1 [H-Val-Amp(MPUPA)-Leu-Glu(tBu)-OH]
ring closure, isolated yield ([1]; from H-Val-Amp(MPUPA)-Leu-Glu(tBu)-OH, 14-membered ring, 0.76 mM): 65%

Cc1ccccc1NC(=O)Nc1ccc(CC(=O)N2C[C@@H](NC(=O)[C@@H](N)CC(C)C)C[C@H]2C(=O)N[C@H](C(=O)N[C@@H](CC(=O)OC(C)(C)C)C(=O)O)C(C)C)cc1 [H-Leu-Amp(MPUPA)-Val-Asp(tBu)-OH]
ring closure, isolated yield ([2]; 14-membered ring): 73%

Cc1ccccc1NC(=O)Nc1ccc(CC(=O)N2C[C@@H](NC(=O)[C@@H](N)CC(C)C)C[C@H]2C(=O)N[C@H](C(=O)N[C@@H](CCC(=O)OC(C)(C)C)C(=O)O)C(C)C)cc1 [H-Leu-Amp(MPUPA)-Val-Glu(tBu)-OH]
ring closure, isolated yield ([2]; 14-membered ring): 73%
